Data from patent publication US7592366B2, “Therapeutic compounds” (Allergan, Inc., priority 2006, dated 2009).
pKi: −log10 of the molar value.

Key:
hDP/Gqs5 = biological target: T1, hDP/Gqs5 (Homo sapiens, UniProt Q13258); test: FLIPR calcium signal, hDP; type: cell-based; details: read-out: Other Receptors (EC50 in nM) hDP
T1 construct: expressed in transfected cells; host or cells: HEK-293(EBNA)
T1 sequence (Q13258 1-359): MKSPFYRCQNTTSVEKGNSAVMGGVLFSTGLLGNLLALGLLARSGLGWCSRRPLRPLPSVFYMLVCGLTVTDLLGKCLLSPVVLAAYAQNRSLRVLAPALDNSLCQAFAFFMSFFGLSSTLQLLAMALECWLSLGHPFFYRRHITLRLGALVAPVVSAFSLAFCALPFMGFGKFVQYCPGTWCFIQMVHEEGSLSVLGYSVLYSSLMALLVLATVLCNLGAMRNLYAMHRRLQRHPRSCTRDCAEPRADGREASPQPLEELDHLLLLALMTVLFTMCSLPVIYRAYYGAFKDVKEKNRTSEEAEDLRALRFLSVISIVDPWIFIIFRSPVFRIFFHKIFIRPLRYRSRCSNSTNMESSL
Method: HEK-293(EBNA) cells, stably expressing one type or subtype of recombinant human prostaglandin receptors (prostaglandin receptors expressed: hDP/Gqs5; hEP1; hEP2/Gqs5; hEP3A/Gqi5; hEP4/Gqs5; hFP; hIP; hTP), were cultured in 100 mm culture dishes in high-glucose DMEM medium containing 10% fetal bovine serum, 2 mM l-glutamine, 250 μg/ml geneticin (G418) and 200 μg/ml hygromycin B as selection markers, and 100 units/ml penicillin G, 100 μg/ml streptomycin and 0.25 μg/ml amphotericin B.
Cells were seeded at a density of 5×10^4 cells per well in Biocoat® Poly-D-lysine-coated black-wall, clear-bottom 96-well plates (Becton-Dickinson) and allowed to attach overnight in an incubator at 37° C. Cells were then washed two times with HBSS-HEPES buffer (Hanks Balanced Salt Solution without bicarbonate and phenol red, 20 mM HEPES, pH 7.4) using a Denley Cellwash plate washer (Labsystems). After 45 minutes of dye-loading in the dark, using the calcium-sensitive dye Fluo-4 […] at a final concentration of 2 μM, plates were washed four times with HBSS-HEPES buffer to remove excess dye leaving 100 μl in each well. Plates were re-equilibrated to 37° C. for a few minutes.
Cells were excited with an Argon laser at 488 nm, and emission was measured through a 510-570 nm bandwidth emission filter (FLIPR™, Molecular Devices, Sunnyvale, Calif.). Drug solution was added in a 50 μl volume to each well to give the desired final concentration. The peak increase in fluorescence intensity was recorded for each well. On each plate, four wells each served as negative (HBSS-HEPES buffer) and positive controls (standard agonists: BW245C (hDP); PGE2 (hEP1; hEP2/Gqs5; hEP3A/Gqi5; hEP4/Gqs5); PGF2α (hFP); carbacyclin (hIP); U-46619 (hTP), depending on receptor). The peak fluorescence change in each drug-containing well was then expressed relative to the controls.
Compounds were tested in a high-throughput (HTS) or concentration-response (CoRe) format. In the HTS format, forty-four compounds per plate were examined in duplicates at a concentration of 10^−5 M. To generate concentration-response curves, four compounds per plate were tested in duplicates in a concentration range between 10^−5 and 10^−11 M. The duplicate values were averaged. In either, HTS or CoRe format each compound was tested on at least 3 separate plates using cells from different passages to give an n≧3.

EP2 = EP2 (Homo sapiens, UniProt P43116); test: Competition binding [3H]PGE2, EP2 Ki; parameters: expressed in transfected cells; host or cells: HEK 293; details: [3H]PGE2 competition, HEK 293 cells expressing human EP2
Method: Competition binding experiments were performed in a medium containing Hank's balanced salt solution, Hepes 20 mM, pH 7.3, membranes (˜60 μg protein) or 2×10^5 cells from HEK 293 cells stably expressing human EP2 receptors, [^3H]PGE2 (10 nM) and various concentrations of test compounds in a total volume of 300 μl. Reaction mixtures were incubated at 23° C. for 60 min, and were filtered over Whatman GF/B filters under vacuum. Filters were washed three times with 5 ml ice-cold buffer containing 50 mM Tris/HCl (pH 7.3). Non-specific binding was estimated in the presence of excess unlabeled PGE2 (10 μM). Binding data fitted to the binding model for a single class of binding sites, using nonlinear regression analysis. IC50 values thus obtained were converted to Ki using the equation of Ki=(IC50/(1+[L]/KD) where [L] represents PGE2 concentration (10 nM) and KD the dissociation constant for [^3H]PGE2 at human EP2 receptors (40 nM).
HEK-293 cells stably expressing the human or feline FP receptor, or EP1, EP2, or EP4 receptors were washed with TME buffer, scraped from the bottom of the flasks, and homogenized for 30 sec using a Brinkman PT 10/35 polytron. TME buffer was added to achieve a final 40 ml volume in the centrifuge tubes (the composition of TME is 100 mM TRIS base, 20 mM MgCl2, […]; 10N HCl is added to achieve a pH of 7.4).
The cell homogenate was centrifuged at 19000 r.p.m. for 20 min at 4° C. using a Beckman Ti-60 rotor. The resultant pellet was resuspended in TME buffer to give a final 1 mg/ml protein concentration, as determined by Biorad assay. Radioligand binding competition assays vs. [^3H-]17-phenyl PGF2α (5 nM) were performed in a 100 μl volume for 60 min. Binding reactions were started by adding plasma membrane fraction. The reaction was terminated by the addition of 4 ml ice-cold TRIS-HCl buffer and rapid filtration through glass fiber GF/B filters using a Brandel cell harvester. The filters were washed 3 times with ice-cold buffer and oven dried for one hour.
[^3H-] PGE2 (specific activity 180 Ci mmol) was used as the radioligand for EP receptors. [^3H] 17-phenyl PGF2α was employed for FP receptor binding studies. Binding studies employing EP1, EP2, EP4 and FP receptors were performed in duplicate in at least three separate experiments. A 200 μl assay volume was used. Incubations were for 60 min at 25° C. and were terminated by the addition of 4 ml of ice-cold 50 mM TRIS-HCl, followed by rapid filtration through Whatman GF/B filters and three additional 4 ml washes in a cell harvester (Brandel). Competition studies were performed using a final concentration of 5 nM [^3H]-PGE2, or 5 nM [^3H] 17-phenyl PGF2α and non-specific binding determined with 10^−5M of unlabeled PGE2, or 17-phenyl PGF2α, according to receptor subtype studied.

Sequence of EP2 (P43116 whole entry): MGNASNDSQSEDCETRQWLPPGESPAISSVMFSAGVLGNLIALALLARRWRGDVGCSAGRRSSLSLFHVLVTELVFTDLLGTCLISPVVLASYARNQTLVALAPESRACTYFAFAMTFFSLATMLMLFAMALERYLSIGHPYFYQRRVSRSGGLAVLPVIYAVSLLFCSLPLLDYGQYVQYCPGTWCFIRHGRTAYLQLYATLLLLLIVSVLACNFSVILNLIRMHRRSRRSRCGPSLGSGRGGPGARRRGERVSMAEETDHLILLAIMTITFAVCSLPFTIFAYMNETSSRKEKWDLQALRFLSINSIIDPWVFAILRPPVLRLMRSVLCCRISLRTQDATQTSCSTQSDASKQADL

| EC50 (hDP/Gqs5) [nM] | pKi (EP2) | SMILES |
| --- | --- | --- |
| 12700 | 8.70 | O=C(O)c1ccc(CCC[C@@H]2[C@@H](CCc3cc(F)cc(F)c3)[C@H](O)C[C@H]2Cl)s1 [11d, 5-(3-((1R,2R,3R,5R)-5-chloro-2-(3,5-difluorophenethyl)-3-hydroxycyclopentyl)propyl)thiophene-2-carboxylic acid] |
| > 10000 | 7.66 | O=C(O)c1ccc(CCC[C@@H]2[C@@H](CCc3cc(Cl)cc(Cl)c3)[C@@H](O)C[C@H]2Cl)s1 [compound 17, 5-(3-((1R,2R,3S,5R)-5-chloro-2-(3,5-dichlorophenethyl)-3-hydroxycyclopenty)propyl)thiophene-2-carboxylic acid] |
